# Data taken from ChEMBL document CHEMBL1806427, “Pyridine-derived γ-secretase modulators” (Bioorg Med Chem Lett, 2011).
# Active and inactive are the calls of the source. No cut-off for these calls is given here.
# What was measured:
# [1] = molecular target: Gamma-secretase; test: Inhibition of gamma-secretase in human SHSY5Y cells expressing human recombinant Swedish variant of APP K595N/M596L assessed as reduction of amyloid beta42 level after 48 hrs by AlphaLISA assay; assay type: cell-based; details: sh-sy5y
# [2] = molecular target: Gamma-secretase; test: Inhibition of gamma-secretase in human SHSY5Y cells expressing human recombinant Swedish variant of APP K595N/M596L assessed as reduction of amyloid beta40 level after 48 hrs by AlphaLISA assay; assay type: cell-based; details: sh-sy5y
# [3] = test system: Rattus norvegicus; test: Antialzheimer activity in Sprague-Dawley rat assessed as reduction of amyloid beta42 level in brain at 30 mg/kg/day, po for 5 days measured 6 hrs after last dose; assay type: functional; parameters: scale not given: the % may be the effect or the level left
# [4] = Drug level in Sprague-Dawley rat brain at 30 mg/kg/day, po for 5 days measured 6 hrs after last dose; assay type: ADME, organism-based; parameters: route oral; details: read-out: Drug uptake
# [5] = test system: Rattus norvegicus; test: Toxicity in Sprague-Dawley rat assessed as effect on Notch-mediated Hes-1 mRNA level in ileum at 30 mg/kg/day, po for 5 days measured 6 hrs after last dose; assay type: organism-based; parameters: route oral; details: in vivo
# [6] = test system: Rattus norvegicus; test: Toxicity in Sprague-Dawley rat assessed as effect on Notch-mediated CD4 level in thymocytes at 30 mg/kg/day, po for 5 days measured 6 hrs after last dose; assay type: organism-based; parameters: route oral; details: in vivo
# [7] = test system: Rattus norvegicus; test: Toxicity in Sprague-Dawley rat assessed as effect on Notch-mediated CD8 level in thymocytes at 30 mg/kg/day, po for 5 days measured 6 hrs after last dose; assay type: organism-based; parameters: route oral; details: in vivo
# [8] = Inhibition of gamma-secretase expressed in african green monkey CV1 cells co-expressing Gal4 DNA-binding/transactivation domain assessed as inhibition of notch processing after 22 hrs by luciferase reporter assay; assay type: cell-based; details: CV-1, 22 h
# [9] = test system: SH-SY5Y; test: Toxicity in human SH-SY5Y cells assessed as cell viability up to 3 uM by WST-1 assay; assay type: cell-based
# [10] = test system: Blood; test: Drug level in Sprague-Dawley rat blood at 30 mg/kg, po; assay type: ADME, organism-based; parameters: dose 30 mg/kg, route oral; details: in vivo, read-out: Drug uptake
# [11] = test system: Brain; test: Drug level in Sprague-Dawley rat brain at 30 mg/kg, po; assay type: ADME, organism-based; parameters: dose 30 mg/kg, route oral; details: in vivo, read-out: Drug uptake
# [12] = Ratio of drug level in brain to blood in Sprague-Dawley rat at 30 mg/kg, po; assay type: ADME, organism-based; parameters: dose 30 mg/kg, route oral; details: brain/whole blood, read-out: BBR
# [13] = molecular target: T1, Gamma-secretase (Homo sapiens) (UniProt Q96BI3+Q9NZ42+Q8WW43+P49768+Q92542+P49810); test: Inhibition of gamma-secretase in human SHSY5Y cells expressing human recombinant Swedish variant of APP K595N/M596L assessed as reduction of amyloid beta42 level after 24 hrs by DELFIA assay; assay type: cell-based; details: SH-SY5Y
# [14] = molecular target: T1, Gamma-secretase (Homo sapiens); test: Inhibition of gamma-secretase in human SHSY5Y cells expressing human recombinant Swedish variant of APP K595N/M596L assessed as reduction of amyloid beta40 level after 24 hrs by DELFIA assay; assay type: cell-based; details: SH-SY5Y
# [15] = molecular target: T1, Gamma-secretase (Homo sapiens); test: Inhibition of gamma-secretase in human SHSY5Y cells expressing human recombinant Swedish variant of APP K595N/M596L assessed as increase of total amyloid beta level after 24 hrs by DELFIA assay; assay type: cell-based; details: SH-SY5Y
# [16] = Blood clearance in Sprague-Dawley rat at 1 mg/kg, iv and 2 mg/kg, po; assay type: ADME, organism-based; details: whole blood
# [17] = Volume of distribution at steady state in Sprague-Dawley rat at 1 mg/kg, iv and 2 mg/kg, po; assay type: ADME, organism-based; details: in vivo, read-out: Vdss
# [18] = Half life in Sprague-Dawley rat at 1 mg/kg, iv and 2 mg/kg, po; assay type: ADME, organism-based; details: in vivo
# [19] = Oral bioavailability in Sprague-Dawley rat at 2 mg/kg; assay type: ADME, organism-based; details: in vivo
pIC50 [1],pIC50 [2],IC50 [8],SMILES,other results
5.5,5.1,,Cc1cn(-c2ccc(-c3ccc(N[C@@H](C)c4ccc(F)cc4)nc3)cc2OC(C)C)cn1,
6.7,6,10 µM,COc1cc(-c2cnc(N[C@@H](C)c3ccc(F)cc3)nc2)ccc1-n1cnc(C)c1,
6.1,4.3,,COc1cc(-c2cnc(N[C@@H](C)c3ccc(F)cc3)s2)ccc1-n1cnc(C)c1,
6.9,6.1,10 µM,COc1cc(-c2ccc(N[C@@H](C)c3ccc(F)cc3)nc2)ccc1-n1cnc(C)c1 [listing 1 of 2 here],Activity [9]: Non-toxic; concentration [10]: 4.98 µM; concentration [11]: 8.75 µM; Kp [12]: 1.74; Activity [3]: 27.6%; concentration at 6 h [4]: 8.86 µM; Activity [5]: Non-toxic; Activity [6]: Non-toxic; Activity [7]: Non-toxic
6.2,5,6.31 µM,COc1cc(-c2ccc(N[C@@H](C)c3ccc(F)cc3)cn2)ccc1-n1cnc(C)c1,
6.5,4.5,,COc1cc(-c2noc(N[C@@H](C)c3ccc(F)cc3)n2)ccc1-n1cnc(C)c1,
6.6,5.9,10 µM,COc1cc(-c2ncc(N[C@@H](C)c3ccc(F)cc3)cn2)ccc1-n1cnc(C)c1,
7.1,6.2,,COc1cc(-c2nnc(N[C@@H](C)c3ccc(F)cc3)s2)ccc1-n1cnc(C)c1,

# More lines, now with the values behind:
SMILES,pIC50 [1],pIC50 [2],IC50 [8],other results
Cc1cn(-c2ccc(-c3ccc(N[C@@H](C)c4ccc(F)cc4)nc3)cc2Cl)cn1,6.4,5.7,,
CCOc1cc(-c2ccc(N[C@@H](C)c3ccc(F)cc3)nc2)ccc1-n1cnc(C)c1,6.3,5.3,,
COc1cc(-c2cc(C)c(N[C@@H](C)c3ccc(F)cc3)nn2)ccc1-n1cnc(C)c1,,,,Activity [3]: 45.7%; concentration at 6 h [4]: 10.4 µM; Activity [5]: Non-toxic; Activity [6]: Non-toxic; Activity [7]: Non-toxic
Cc1cn(-c2ccc(-c3ccc(N[C@@H](C)c4ccc(F)cc4)nc3)cc2-c2ccccc2)cn1,4.8,5,,
COc1cc(-c2ccc(N[C@@H](C)c3ccc(F)cc3)nc2)ccc1-c1sc(C)nc1C,6.4,5.3,10 µM,
COc1cc(-c2ccc(N[C@@H](C)c3ccc(F)cc3)nc2)ccc1-c1cc(C)ns1,6.6,5.7,15.8 µM,
COc1cc(-c2ccc(N[C@@H](C)c3ccc(F)cc3)nc2)ccc1-n1cnc(C)c1 [listing 2 of 2 here],,,,inhibition [13]: Dose-dependent effect; inhibition [14]: Dose-dependent effect; inhibition [15]: Active
COc1cc(-c2ccc(N[C@@H](C)c3ccc(F)cc3)nc2)ccc1-c1ccnc(C)c1,6.3,5.2,6.31 µM,
Cc1cn(-c2ccc(-c3ccc(N[C@@H](C)c4ccc(F)cc4)nc3)cc2C)cn1,5.2,4.8,,
Cc1cn(-c2ccc(-c3ccc(N[C@@H](C)c4ccc(F)cc4)nc3)cc2N(C)C)cn1,4.3,4.4,,
COc1cc(-c2ccc(N[C@@H](C)c3ccc(F)cc3)nc2)ccc1-c1ccnnc1,6.4,5.7,12.6 µM,
CNC(=O)c1cc(-c2ccc(N[C@@H](C)c3ccc(F)cc3)nc2)ccc1-n1cnc(C)c1,< 4,< 4,,
COc1cc(-c2ccc(N[C@@H](C)c3ccc(F)cc3)nc2)ccc1-n1cnc(C)c1.Cl,,,,clearance [16]: 12.2 mL/min/kg; Vd [17]: 3.7 L/kg; half-life [18]: 3.3 h; bioavailability [19]: 100%
